Data as given in ChEMBL document CHEMBL5034045, “Novel Macrocyclic Peptidylarginine Deiminase Type 4 (PAD4) Inhibitors” (ACS Med Chem Lett, 2022).
pIC50: −log10 of the molar value.

Target: Protein-arginine deiminase type-4 (Homo sapiens, UniProt Q9UM07)
Test: Inhibition of human PAD4 using BAEE as substrate incubated for 30 mins by spectrophotometric based assay

Protein-arginine deiminase type-4, sequence (Q9UM07 whole entry): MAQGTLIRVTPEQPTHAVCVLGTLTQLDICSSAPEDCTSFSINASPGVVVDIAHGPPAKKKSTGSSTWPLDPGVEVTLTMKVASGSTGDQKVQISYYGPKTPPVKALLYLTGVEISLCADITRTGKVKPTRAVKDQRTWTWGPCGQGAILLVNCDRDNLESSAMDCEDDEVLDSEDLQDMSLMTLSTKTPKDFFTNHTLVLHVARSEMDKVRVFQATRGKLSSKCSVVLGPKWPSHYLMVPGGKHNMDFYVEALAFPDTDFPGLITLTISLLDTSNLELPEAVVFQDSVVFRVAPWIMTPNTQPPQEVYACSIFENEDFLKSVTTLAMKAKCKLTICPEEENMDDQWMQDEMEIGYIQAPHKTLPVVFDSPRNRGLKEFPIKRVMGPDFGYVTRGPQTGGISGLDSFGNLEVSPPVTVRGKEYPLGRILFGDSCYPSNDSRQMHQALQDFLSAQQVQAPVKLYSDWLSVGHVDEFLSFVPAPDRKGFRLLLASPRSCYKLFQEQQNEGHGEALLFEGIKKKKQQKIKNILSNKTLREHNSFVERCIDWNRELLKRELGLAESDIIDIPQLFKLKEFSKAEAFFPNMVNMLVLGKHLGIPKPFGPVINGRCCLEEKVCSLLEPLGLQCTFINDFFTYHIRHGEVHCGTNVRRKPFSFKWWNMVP

| Compound | pIC50 |
| --- | --- |
| CC1NC(=O)[C@@H]2CC2CCCC(F)(F)Cn2c(-c3nc4cc(C(=O)N5CCC[C@@H](N)[C@H]5C)cc(Cl)c4n3C3CC3)cc3ccc1nc32 (stereo partly specified) | 8.22 |
| [2H]C1([2H])[C@H](N)[C@@H]2CC[C@@H](C2)N1C(=O)c1cc(OC)c2c(c1)nc(-c1cc3ccc4nc3n1CCCCCc1ccccc1C(=O)NC4C)n2C (stereo partly specified) | 8.30 |
| COc1cc(C(=O)N2C[C@H](N)[C@@H]3CC[C@H]2C3)cc2nc(-c3cc4ccc5nc4n3CCCCCC3[C@H](C(=O)NC5C)C3(F)F)n(C)c12 (stereo partly specified) | 8.30 |

The next lines start with the values.

| pIC50 | Compound |
| --- | --- |
| 8.30 | CC1NC(=O)c2cc3sccc3nc2CCCCCn2c(-c3nc4cc(C(=O)N5CCC[C@@H](N)[C@H]5C)cc(F)c4n3C3CC3)cc3ccc1nc32 (stereo partly specified) |
| 8.22 | Cc1ccc2c(n1)CCCCCn1c(-c3nc4cc(C(=O)N5C[C@H](N)[C@@H]6CC[C@H]5C6)cc(F)c4n3C3CC3)cc3ccc(nc31)C(C)NC2=O (stereo partly specified) |
| 8.30 | CC1NC(=O)[C@@H]2C[C@@]2(F)CCCC(F)(F)Cn2c(-c3nc4cc(C(=O)N5CCC[C@@H](N)[C@H]5C)cc(F)c4n3C3CC3)cc3ccc1nc32 (stereo partly specified) |
